US20210179686A1, “CELL SORTING SYSTEMS AND METHODS OF USE” (MEMORIAL SLOAN-KETTERING CANCER CENTER, priority 2018, published 2021)

What was measured:
[1] = test system: FLAG-RR12EE345L; experiment: capture and presentation of secreted FLAG leucine zipper by mutant blocking leucine zippers in C1498 cells; format: cell-based; conditions: FIG. 20
Description: A series of mutations were made in the “g” residues of the blocking leucine zipper to reduce heterodimerization affinity between the capture leucine zipper and the linked blocking leucine zipper. The following six mutants were made: 1N mutant: E1R2EE345L (having the amino acid sequence set forth in SEQ ID NO: 98), 1M mutant: RR123E45L (having the amino acid sequence set forth in SEQ ID NO: 99), 2N mutant: EE12345L (having the amino acid sequence set forth in SEQ ID NO: 102), 2M mutant: RR1234E5L (having the amino acid sequence set forth in SEQ ID NO: 103), 3N mutant: EE12R3E45L (having the amino acid sequence set forth in SEQ ID NO: 106), and 3C mutant: RR12345L (having the amino acid sequence set forth in SEQ ID NO: 107).
C1498 cells were co-transduced with the FLAG-RR12EE345L GFP vector and one of the six mutants as part of RR12EE345L linker EE12RR345L BFP vector constructs. […] Thus, mutating the […] leucine zipper at “g” position residues to include repulsive amino acid interactions can reduce the degree of blocking by the linked […]-based mutant leucine zipper.

[2] = test system: CD20 mimotope; experiment: antibody plus complement depletion of double transduced C1498 cells; format: cell-based; conditions: RQR-RR12EE345L plus capture leucine zipper, in the presence of complement, FIG. 18
Description: Next, C1498 cells were double transduced with capture leucine zippers as shown in FIG. 18 and a second vector encoding the tandem CD20 mimotope/CD34 leucine zipper tag (RQR-RR12EE345L). Subsequently, the cells were incubated with anti-CD20 antibody Rituximab or irrelevant antibody Cetuximab in the presence of complement.

[3] = biological target: T1, iCaspase 9 (Homo sapiens, UniProt P55211, Q221R); experiment: activation of iCaspase 9 suicide gene by chemical inducer of dimerization in sorted dual-transduced T cells; format: cell-based, mouse
T1 construct: […]; expressed in transfected cells
Description: FIG. 5 depicts purification and testing of dual-transduced cells with iCaspase 9 and CD20-CAR. T cells comprising RR12EE345L-FLAG iCaspase 9 (vector 1) and RR12EE345L-linker-EE12RR345L-Thy1.1 CD20-CAR (vector 2) were incubated with EL4-CD19 and EL4-CD20 targets in the presence or absence of chemical inducer of dimerization (CID).
IL-18 secretion was assessed by ELISA. Interferon gamma secretion was assessed by cytometric bead array.

Sequence of FLAG-RR12EE345L (as listed by the source): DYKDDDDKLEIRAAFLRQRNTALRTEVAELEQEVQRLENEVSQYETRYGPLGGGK
T1 sequence (P55211 with tags, fused parts or gaps Q221R): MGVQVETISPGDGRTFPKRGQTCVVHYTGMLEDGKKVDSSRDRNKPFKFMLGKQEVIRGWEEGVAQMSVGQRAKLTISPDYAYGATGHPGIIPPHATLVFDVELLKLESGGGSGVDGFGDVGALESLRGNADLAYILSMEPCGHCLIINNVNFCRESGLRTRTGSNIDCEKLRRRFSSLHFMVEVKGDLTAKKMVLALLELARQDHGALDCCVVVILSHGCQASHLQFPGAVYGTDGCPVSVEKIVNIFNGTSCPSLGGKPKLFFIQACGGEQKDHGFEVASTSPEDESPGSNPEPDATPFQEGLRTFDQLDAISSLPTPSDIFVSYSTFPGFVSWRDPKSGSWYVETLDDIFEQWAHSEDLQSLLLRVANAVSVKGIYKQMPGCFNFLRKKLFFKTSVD
Sequence of CD20 mimotope (as listed by the source): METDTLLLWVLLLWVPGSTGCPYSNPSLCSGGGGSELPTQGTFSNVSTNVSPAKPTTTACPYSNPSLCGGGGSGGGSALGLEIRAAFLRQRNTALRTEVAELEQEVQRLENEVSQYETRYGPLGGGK

“3N mutant: blocking leucine zipper mutant, amino acid sequence SEQ ID NO: 106 (LEIEAAFLRQENTALRTRVAELEQEVQRLENEVSQYETRYGPLGGGK)” was tested, and the “presentation of secreted leucine zipper” value ([1]; C1498 cells co-transduced with FLAG-RR12EE345L GFP vector) was “enhanced presentation of secreted leucine zipper” and the FLAG binding ([1]; double transduced and single-transduced capture-zipper-only C1498 cells) was “increased FLAG binding in double transduced cells (intracellular pairing), but also in single-transduced capture leucine zipper-only cells (extracellular pairing)”.
With Rituximab the depletion of cells [2] was “selective depletion of double transduced cells”.
With `CC[C@H](C(=O)N1CCCC[C@H]1C(=O)O[C@H](CCc1ccc(OC)c(OC)c1)c1cccc(OCC(=O)NCC(CNC(=O)COc2cccc([C@@H](CCc3ccc(OC)c(OC)c3)OC(=O)[C@@H]3CCCCN3C(=O)[C@@H](CC)c3cc(OC)c(OC)c(OC)c3)c2)CN(C)C)c1)c1cc(OC)c(OC)c(OC)c1` [chemical inducer of dimerization] the “induction of T cell apoptosis” value ([3]; T cells with iCaspase 9 on one vector and CD20-CAR on the other, FIG. 5) was > 90% and the cell death ([3]; sorted cells with two vectors expressing CD19-CAR, CD20-CAR and iCaspase9, optionally IL-18, FIG. 6) was “about 90%”.
